The text below walks through data of patent US10202339B2, “Therapeutic compounds and compositions” (AGIOS PHARMACEUTICALS, INC., priority 2012, dated 2019).

For the assay, the target named is IDH2 R140Q (Homo sapiens (Human), UniProt P48735, R140Q). Description: IDH2 R140Q enzymatic cofactor depletion assay (diaphorase/resazurin). The conditions noted are these: IDH2 R140Q enzyme, one hour preincubation with compound, one hour reaction; read-out: Enz R140Q. The class given is biochemical. How it is done: The reaction was terminated by the addition of a second enzyme, diaphorase, and a corresponding substrate, resazurin. Diaphorase reduces resazurin to the highly fluorescent resorufin with the concomitant oxidation of NADPH to NADP, both halting the IDH2 reaction by depleting the available cofactor pool and facilitating quantitation of the amount of cofactor remaining after a specific time period through quantitative production of an easily detected fluorophore.
Sequence of IDH2 R140Q (P48735 40-452 R140Q): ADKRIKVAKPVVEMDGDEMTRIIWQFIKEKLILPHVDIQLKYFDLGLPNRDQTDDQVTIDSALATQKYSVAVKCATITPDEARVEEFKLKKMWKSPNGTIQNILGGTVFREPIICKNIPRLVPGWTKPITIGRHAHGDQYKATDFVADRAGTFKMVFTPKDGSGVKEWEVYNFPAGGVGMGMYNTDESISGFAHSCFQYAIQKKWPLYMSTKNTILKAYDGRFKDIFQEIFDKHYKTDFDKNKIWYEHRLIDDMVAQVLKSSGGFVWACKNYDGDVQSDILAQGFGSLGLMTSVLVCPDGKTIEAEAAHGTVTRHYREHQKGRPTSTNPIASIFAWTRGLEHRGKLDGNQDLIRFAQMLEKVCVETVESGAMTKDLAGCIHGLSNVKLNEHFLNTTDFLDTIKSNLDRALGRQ
The compound was then incubated for one hour at room temperature with the enzyme; before starting the IDH2 reaction with the addition of 10 μl of substrate mix containing 50 μM NADPH and 6.3 mM α-KG in the buffer described above. After a further one hour of incubation at room temperature, the reaction was halted and the remaining NADPH measured through conversion of resazurin to resorufin by the addition of 25 μl Stop Mix (36 μg/ml diaphorase enzyme and 60 μM resazurin; in buffer). After one minute of incubation the plate was read on a plate reader at Ex544/Em590.
In general terms: The colour change of resazurin is a common sign of viable cells or microbes.
As for `O=C(Nc1cnccc1Cl)Nc1cc(S(=O)(=O)NCC(F)(F)F)ccc1-c1ccccc1` [Compound 85, 2-(3-(4-chloropyridin-3-yl)ureido)-N-(2,2,2-trifluoroethyl)-[1,1′-biphenyl]-4-sulfonamide], the IC50 was 100 to 1000 nM.
As for `O=C(Nc1cccc(F)n1)Nc1cc(S(=O)(=O)NCC(F)(F)F)ccc1-c1ccccc1` [Compound 86, 2-(3-(6-fluoropyridin-2-yl)ureido)-N-(2,2,2-trifluoroethyl)-[1,1′-biphenyl]-4-sulfonamide], the IC50 lay within 100 to 1000 nM.
For the compound `O=C(Nc1cc(C(F)(F)F)ccn1)Nc1cc(S(=O)(=O)NCC(F)(F)F)ccc1-c1ccccc1` [Compound 87, N-(2,2,2-trifluoroethyl)-2-(3-(4-(trifluoromethyl)pyridin-2-yl)ureido)-[1,1′-biphenyl]-4-sulfonamide], the IC50 lay in the range of 100 to 1000 nM.
The figure for `O=C(Nc1cccc(Cl)c1)Nc1cc(S(=O)(=O)NCC(F)(F)F)ccc1-c1ccccc1` [Compound 88, 2-(3-(3-chlorophenyl)ureido)-N-(2,2,2-trifluoroethyl)-[1,1′-biphenyl]-4-sulfonamide] is 100 to 1000 nM; for `O=C(Nc1cc(F)cc(F)c1)Nc1cc(S(=O)(=O)NCC(F)(F)F)ccc1-c1ccccc1` [Compound 89, 2-(3-(3,5-difluorophenyl)ureido)-N-(2,2,2-trifluoroethyl)-[1,1′-biphenyl]-4-sulfonamide] it is 100 to 1000 nM.
Turning to `O=C(Nc1cc(F)ccc1Cl)Nc1cc(S(=O)(=O)NCC(F)(F)F)ccc1-c1ccccc1` [Compound 90, 2-(3-(2-chloro-5-fluorophenyl)ureido)-N-(2,2,2-trifluoroethyl)-[1,1′-biphenyl]-4-sulfonamide], the IC50 lay in the range of 100 to 1000 nM.
The figure for `Cc1cc(NC(=O)Nc2cc(S(=O)(=O)NCC(F)(F)F)ccc2-c2ccccc2)nn1C` [Compound 91, 2-(3-(1,5-dimethyl-1H-pyrazol-3-yl)ureido)-N-(2,2,2-trifluoroethyl)-[1,1′-biphenyl]-4-sulfonamide] is 100 to 1000 nM.
The figure for `CC(C)n1ccc(NC(=O)Nc2cc(S(=O)(=O)NCC(F)(F)F)ccc2-c2ccccc2)n1` [Compound 92, 2-(3-(1-isopropyl-1H-pyrazol-3-yl)ureido)-N-(2,2,2-trifluoroethyl)-[1,1′-biphenyl]-4-sulfonamide] is 100 to 1000 nM; for `CCn1ccc(NC(=O)Nc2cc(S(=O)(=O)NCC(F)(F)F)ccc2-c2ccccc2)n1` [Compound 93, 2-(3-(1-ethyl-1H-pyrazol-3-yl)ureido)-N-(2,2,2-trifluoroethyl)-[1,1′-biphenyl]-4-sulfonamide] it is 100 to 1000 nM.
For the compound `O=C(Nc1cncc(C(F)(F)F)c1)Nc1cc(S(=O)(=O)NCC(F)(F)F)ccc1-c1ccccc1` [Compound 94, N-(2,2,2-trifluoroethyl)-2-(3-(5-(trifluoromethyl)pyridin-3-yl)ureido)-[1,1′-biphenyl]-4-sulfonamide], the IC50 fell in the range of 100 to 1000 nM.
The figure for `O=C(Nc1cc(S(=O)(=O)NCC(F)(F)F)ccc1-c1ccccc1)Nc1ncccc1Cl` [Compound 95] is 1000 to 10000 nM; for `Cc1cc(NC(=O)Nc2cc(S(=O)(=O)NCC(F)(F)F)ccc2-c2ccccc2)n(C)n1` [Compound 96] it is 1000 to 10000 nM.
The figure for `O=C(Nc1cc(S(=O)(=O)NCC(F)(F)F)ccc1-c1ccccc1)Nc1cccnc1F` [Compound 97, 2-(3-(2-fluoropyridin-3-yl)ureido)-N-(2,2,2-trifluoroethyl)-[1,1′-biphenyl]-4-sulfonamide] is 100 to 1000 nM; for `O=C(Nc1cncc(F)c1)Nc1cc(S(=O)(=O)NCC(F)(F)F)ccc1-c1ccccc1` [Compound 98, 2-(3-(5-fluoropyridin-3-yl)ureido)-N-(2,2,2-trifluoroethyl)-[1,1′-biphenyl]-4-sulfonamide] it is 100 to 1000 nM; for `O=C(Nc1cc(S(=O)(=O)NCC(F)(F)F)ccc1-c1ccccc1)Nc1ncccc1F` [Compound 99, 2-(3-(3-fluoropyridin-2-yl)ureido)-N-(2,2,2-trifluoroethyl)-[1,1′-biphenyl]-4-sulfonamide] it is 1000 to 10000 nM.
The figure for `O=C(Nc1ncc(Cl)s1)Nc1cc(S(=O)(=O)NCC(F)(F)F)ccc1-c1ccccc1` [Compound 100, 2-(3-(5-chlorothiazol-2-yl)ureido)-N-(2,2,2-trifluoroethyl)-[1,1′-biphenyl]-4-sulfonamide] is 100 to 1000 nM.
For the compound `Cc1nc(NC(=O)Nc2cc(S(=O)(=O)NCC(F)(F)F)ccc2-c2ccccc2)sc1Cl` [Compound 101, 2-(3-(5-chloro-4-methylthiazol-2-yl)ureido)-N-(2,2,2-trifluoroethyl)-[1,1′-biphenyl]-4-sulfonamide], the IC50 was in the range of 100 to 1000 nM.
With `Cc1coc(NC(=O)Nc2cc(S(=O)(=O)NCC(F)(F)F)ccc2-c2ccccc2)n1` [Compound 102, 2-(3-(4-methyloxazol-2-yl)ureido)-N-(2,2,2-trifluoroethyl)-[1,1′-biphenyl]-4-sulfonamide], the IC50 is 100 to 1000 nM.
The figure for `O=C(Nc1nc(C(F)(F)F)cs1)Nc1cc(S(=O)(=O)NCC(F)(F)F)ccc1-c1ccccc1` [Compound 103, N-(2,2,2-trifluoroethyl)-2-(3-(4-(trifluoromethyl)thiazol-2-yl)ureido)-[1,1′-biphenyl]-4-sulfonamide] is 100 to 1000 nM; for `O=C(Nc1cc(S(=O)(=O)NCC(F)(F)F)ccc1-c1ccccc1)Nc1ncccc1C(F)(F)F` [Compound 104, N-(2,2,2-trifluoroethyl)-2-(3-(3-(trifluoromethyl)pyridin-2-yl)ureido)-[1,1′-biphenyl]-4-sulfonamide] it is 1000 to 10000 nM.
For the compound `O=C(Nc1nccc(Cl)n1)Nc1cc(S(=O)(=O)NCC(F)(F)F)ccc1-c1ccccc1` [Compound 105, 2-(3-(4-chloropyrimidin-2-yl)ureido)-N-(2,2,2-trifluoroethyl)-[1,1′-biphenyl]-4-sulfonamide], the IC50 lay within 100 to 1000 nM.
The figure for `O=C(Nc1nccc(C(F)(F)F)n1)Nc1cc(S(=O)(=O)NCC(F)(F)F)ccc1-c1ccccc1` [Compound 106, N-(2,2,2-trifluoroethyl)-2-(3-(4-(trifluoromethyl)pyrimidin-2-yl)ureido)-[1,1′-biphenyl]-4-sulfonamide] is 100 to 1000 nM.
The figure for `Cc1ccnc(NC(=O)Nc2cc(S(=O)(=O)NCC(F)(F)F)ccc2-c2ccccc2)n1` [Compound 107, 2-(3-(4-methylpyrimidin-2-yl)ureido)-N-(2,2,2-trifluoroethyl)-[1,1′-biphenyl]-4-sulfonamide] is 1000 to 10000 nM; for `O=C(Nc1cc(S(=O)(=O)NCC(F)(F)F)ccc1-c1ccccc1)n1ccc2ccccc21` [Compound 108, N-(4-(N-(2,2,2-trifluoroethyl)sulfamoyl)-[1,1′-biphenyl]-2-yl)-1H-indole-1-carboxamide] it is 100 to 1000 nM.
The figure for `O=C(Nc1cccc(C(F)(F)F)c1)Nc1cc(S(=O)(=O)Nc2ccccc2)ccc1-c1ccccn1` [Compound 109] is 1000 to 10000 nM; for `CC(=O)Nc1cccc(-c2ccc(S(=O)(=O)Nc3ccccc3)cc2NC(=O)Nc2cccc(C(F)(F)F)c2)c1` [Compound 110] it is 1000 to 10000 nM.
Consider `CNS(=O)(=O)c1ccc(-c2ccsc2)c(NC(=O)Nc2cccc(C(F)(F)F)c2)c1` [Compound 111, N-methyl-4-(thiophen-3-yl)-3-(3-(3-(trifluoromethyl)phenyl)ureido)benzenesulfonamide], for which the IC50 was in the range of 100 to 1000 nM.
Consider `CCNS(=O)(=O)c1ccc(-c2ccsc2)c(NC(=O)Nc2cccc(C(F)(F)F)c2)c1` [Compound 112, N-ethyl-4-(thiophen-3-yl)-3-(3-(3-(trifluoromethyl)phenyl)ureido)benzenesulfonamide], for which the IC50 was in the range of 100 to 1000 nM.
As for `CCCNS(=O)(=O)c1ccc(-c2ccsc2)c(NC(=O)Nc2cccc(C(F)(F)F)c2)c1` [Compound 113, N-propyl-4-(thiophen-3-yl)-3-(3-(3-(trifluoromethyl)phenyl)ureido)benzenesulfonamide], the IC50 lay within 100 to 1000 nM.
On to `CCCCNS(=O)(=O)c1ccc(-c2ccsc2)c(NC(=O)Nc2cccc(C(F)(F)F)c2)c1` [Compound 114, N-butyl-4-(thiophen-3-yl)-3-(3-(3-(trifluoromethyl)phenyl)ureido)benzenesulfonamide], for which the IC50 was 100 to 1000 nM.
The figure for `CC(C)NS(=O)(=O)c1ccc(-c2ccsc2)c(NC(=O)Nc2cccc(C(F)(F)F)c2)c1` [Compound 115, N-isopropyl-4-(thiophen-3-yl)-3-(3-(3-(trifluoromethyl)phenyl)ureido)benzenesulfonamide] is 100 to 1000 nM; for `CC(C)CNS(=O)(=O)c1ccc(-c2ccsc2)c(NC(=O)Nc2cccc(C(F)(F)F)c2)c1` [Compound 116, N-isobutyl-4-(thiophen-3-yl)-3-(3-(3-(trifluoromethyl)phenyl)ureido)benzenesulfonamide] it is 100 to 1000 nM; for `CCC(C)NS(=O)(=O)c1ccc(-c2ccsc2)c(NC(=O)Nc2cccc(C(F)(F)F)c2)c1` (centres unmarked) [Compound 117, N-(sec-butyl)-4-(thiophen-3-yl)-3-(3-(3-(trifluoromethyl)phenyl)ureido)benzenesulfonamide] it is 100 to 1000 nM.
As to `CC(C)(C)NS(=O)(=O)c1ccc(-c2ccsc2)c(NC(=O)Nc2cccc(C(F)(F)F)c2)c1` [Compound 118, N-(tert-butyl)-4-(thiophen-3-yl)-3-(3-(3-(trifluoromethyl)phenyl)ureido)benzenesulfonamide], the IC50 lay in the range of 100 to 1000 nM.
The figure for `C=CCNS(=O)(=O)c1ccc(-c2ccsc2)c(NC(=O)Nc2cccc(C(F)(F)F)c2)c1` [Compound 119, N-allyl-4-(thiophen-3-yl)-3-(3-(3-(trifluoromethyl)phenyl)ureido)benzenesulfonamide] is 100 to 1000 nM.
